Reference: paper PMC10877733, “Discovery and Characterization of VU0542270, the First Selective Inhibitor of Vascular Kir6.1/SUR2B KATP Channels” (Molecular Pharmacology, 2024)
Entries after “also recorded” stand apart in the source; their conditions may differ.

Tests used:
[1] = Plasma binding by equilibrium dialysis, rat; type: in vitro ADME; conditions: equilibrium dialysis 6 hours 37°C, read-out: Fu, plasma (rat)
Protocol: Determination of VU0542270 fraction unbound (fu) in plasma from mouse, rat, and human was conducted in vitro via equilibrium dialysis using high-throughput dialysis (HTD) membrane plates. Dialysis membranes (four paired strips per HTD assay) were hydrated as described by the manufacturer and inserted into the HTD plate, which was assembled and prepared for sample addition by the dispensing of blank buffer [Delbecco’s phosphate buffered saline (DPBS), 100 µL/well] into the “top half” of each membrane-split well. VU0542270 was diluted into plasma from each species (5 µM final concentration), which was aliquoted in triplicate to the “bottom half” of the prepared HTD plate wells. The HTD plate was sealed and incubated for 6 hours at 37°C. Following incubation, each well (both top and bottom halves) was transferred (20 µL) to the corresponding well of a 96-shallow-well (V-bottom) plate. […]
fu was calculated as (analyte to IS mass spectrometry (MS) peak area ratio from Trans-buffer side)/(analyte to IS MS peak area ratio from Cis-plasma side). Mean values for each species were calculated from three replicates.

[2] = test system: isolated mouse ductus arteriosus vessels; test: Pressure myography of isolated ductus arteriosus vessels; conditions: term gestation mouse DA
Protocol: CD-1 mice were maintained at Vanderbilt University Medical Center in accordance with protocols approved by the Institutional Animal Care and Use Committee. Timed matings were performed to produce offspring at specific stages of development. The presence of a vaginal plug was designated as embryonic day 1.
Term-gestation (embryonic day 19) fetal mouse DAs were isolated and mounted on glass pipet tips in microvessel perfusion chambers as previously reported ([Hooper et al., 2016]). Deoxygenated Krebs buffer was warmed to 37°C and circulated throughout the chamber. Vessels were pressurized in a stepwise manner to physiologic neonatal mouse mean arterial pressure (20 mmHg) and then challenged with 50 mM KCl to test reactivity. […] For dose-response studies, vessels were first dilated by circulating Krebs buffer bubbled with 95% nitrogen, 5% CO2 to mimic the hypoxic conditions of the womb. […] Following each dose, lumen diameters were allowed to plateau (approximately 20 minutes) before the next dose was added. Continuous lumen diameter measurements were recorded using a digital image capture system (IonOptix). An N of >6 vessels from at least three different litters was used for each experimental condition. Changes in lumen diameter are represented as the percent change in diameter compared with the baseline lumen diameter of vessels prior to drug exposure. […] Values represent mean ± S.D.

[3] = Intrinsic clearance in liver microsomes, mouse; type: in vitro ADME
Protocol: The in vitro intrinsic clearance (CLint) of VU0542270 was investigated in commercially obtained hepatic microsomes from rat, mouse, and human donors using the substrate depletion (i.e., loss-of-parent versus time, or t1/2 method) approach with analyte detection via LC-MS/MS. For each species, mean per cent parent remaining values at each time point were calculated from replicates raw data (analyte:IS peak area ratios) and used to determine in vitro t1/2 and CLint.
Experiments were carried out using a robot-assisted liquid handling system (TECAN model Evo 200). VU0542270 was incubated (1 µM final concentration) in buffer (100 mM potassium phosphate, pH 7.4, with 3 mM MgCl2) containing hepatic microsomes (0.5 mg/mL final concentration) from multiple species, discretely, at 37°C under constant orbital shaking. After 5 minutes (preincubation), reactions were initiated by the addition of NADPH (1 mM final concentration). At selected time intervals (0, 3, 7, 15, 25, and 45 minutes) post addition of NADPH, aliquots (50 µL) were taken and placed into a 96-shallow-well plate containing ice-cold acetonitrile (150 µL) with carbamazepine (IS, 50 nM). The plates were then centrifuged (3000 rcf at 4°C) for 10 minutes. […]
Predicted hepatic clearance (CLhep) was calculated using the following equation: [drawing 4] […]

In the case of `Cc1nc(-c2cccs2)sc1CNC(=O)Nc1cccs1` [VU0542270], the fraction unbound at 6 h, 5 µM [1] is reported as 0.01, the “ductus arteriosus vessel constriction” value ([2]; increasing concentrations, compound alone) is reported as “induced ductus arteriosus constriction in a dose-dependent manner; also recorded: constricted in a concentration-dependent manner” and the “ductus arteriosus vessel constriction in the presence of pinacidil” value ([2]; with 10 µM pinacidil) is reported as “substantially blunted vasoconstrictive effects”. The “Predicted CLhep,u (mouse)” value ([3]; corrected to plasma unbound fraction) was 27 mL/min per kg and the “Predicted CLhep (mouse)” value ([3]; from microsomal CLint) was 88 mL/min per kg.
